The text below walks through data of patent US9561228B2 (Celgene Avilomics Research, Inc., priority 2013, dated 2017).

The subject of experiment [1] is ERK1/2 phosphorylation of p90RSK in HT29 cells. The experiment in a line: pRSK MSD Assay in HT29 cells. The format is cell-based. The note with it: Homo sapiens, HT-29, read-out: ERK1/ERK2 PRSK MSD HT29 EC50. The procedure, abridged: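 Phospho-RSK level, read by electrochemiluminescence on RSK-antibody-coated MSD plates with a phospho-RSK/Sulfo-tag detection pair, reports cellular ERK1/2 activity. HT29 cells, kept overnight in 0.1% FBS medium, were exposed to compound for 120 min at 37° C before lysis.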

Experiment [2] relates to ERK1/2 phosphorylation of p90RSK in A375 cells. Briefly: Detection of total and phosphor-RSK by MSD ELISA (A375). The note with it: Homo sapiens, A-375, read-out: ERK1/ERK2 PRSK A375 EC50. The format is cell-based. The procedure, abridged: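 Electrochemiluminescent MSD ELISA: common RSK capture antibody, with pRSK Ser380 or total RSK detection antibodies plus SulfoTag secondaries. Samples were lysates of A375 cells exposed to compound for 2 h at 37° C after overnight culture in 0.1% FBS DMEM.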
(In an ELISA, binding on a coated surface is turned into a signal by an enzyme label.)

Turning to `C=CC(=O)Nc1cc(C(=O)N2CCN(S(C)(=O)=O)CC2)ccc1Nc1nc(Nc2cc(OC)ncc2C)ncc1C(F)(F)F` [Compound I-401, N-(2-((2-((2-methoxy-5-methylpyridin-4-yl)amino)-5-(trifluoromethyl)pyrimidin-4-yl)amino)-5-(4-(methylsulfonyl)piperazine-1-carbonyl)phenyl)acrylamide], the EC50 in experiment [1] and in experiment [2] was 101 to 500 nM in each case.
With `C=CC(=O)Nc1cc(CN2CCN(C(=O)c3ccccn3)CC2)ccc1Nc1nc(Nc2nc(OC)ncc2C)ncc1C(F)(F)F` [Compound I-391, N-(2-((2-((2-methoxy-5-methylpyrimidin-4-yl)amino)-5-(trifluoromethyl)pyrimidin-4-yl)amino)-5-((4-picolinoylpiperazin-1-yl)methyl)phenyl)acrylamide], the EC50 in experiment [1] is 101 to 500 nM; in experiment [2] it was over 1000 nM.
On the same counts, the results for `C=CC(=O)Nc1cc(C)ccc1Nc1nc(Nc2cc(C(F)(F)F)nn2C)ncc1C(F)(F)F` [Compound I-419, N-(5-methyl-2-((2-((1-methyl-3-(trifluoromethyl)-1H-pyrazol-5-yl)amino)-5-(trifluoromethyl)pyrimidin-4-yl)amino)phenyl)acrylamide] are over 1000 nM and over 1000 nM.
On the same counts, the results for `C=CC(=O)Nc1cc(C)ccc1Nc1nc(Nc2nc(OC)ncc2C(F)(F)F)ncc1C(F)(F)F` [Compound I-355, N-(2-((2-((2-methoxy-5-(trifluoromethyl)pyrimidin-4-yl)amino)-5-(trifluoromethyl)pyrimidin-4-yl)amino)-5-methylphenyl)acrylamide] are 101 to 500 nM and 101 to 500 nM.
On the same counts, the results for `C=CC(=O)Nc1cc(C)ccc1Nc1nc(Nc2nc(OC)nc(OC)n2)ncc1C(F)(F)F` [Compound I-371, N-(2-((2-((4,6-dimethoxy-1,3,5-triazin-2-yl)amino)-5-(trifluoromethyl)pyrimidin-4-yl)amino)-5-methylphenyl)acrylamide] are 101 to 500 nM and 101 to 500 nM.
As to `C=CC(=O)Nc1cc(C)ccc1Nc1nc(Nc2cc(OC)cnc2Cl)ncc1C(F)(F)F` [Compound I-361, N-(2-((2-((2-chloro-5-methoxypyridin-3-yl)amino)-5-(trifluoromethyl)pyrimidin-4-yl)amino)-5-methylphenyl)acrylamide], the EC50 in experiment [1] was under 100 nM; in experiment [2], 101 to 500 nM.
The like results for `C=CC(=O)Nc1cc(C)ccc1Nc1nc(Nc2c[nH]c(=O)cc2C)ncc1C(F)(F)F` [Compound I-370, N-(5-methyl-2-((2-((4-methyl-6-oxo-1,6-dihydropyridin-3-yl)amino)-5-(trifluoromethyl)pyrimidin-4-yl)amino)phenyl)acrylamide] were, in that order, 501 to 999 nM and over 1000 nM.
Take `C=CC(=O)Nc1cc(OCC(N)=O)ccc1Nc1nc(NC2CCOCC2)ncc1C(F)(F)F` [Compound I-387, N-(5-(2-amino-2-oxoethoxy)-2-((2-((tetrahydro-2H-pyran-4-yl)amino)-5-(trifluoromethyl)pyrimidin-4-yl)amino)phenyl)acrylamide]: the EC50 in experiment [1] and in experiment [2] was 101 to 500 nM each time.
Regarding `C=CC(=O)Nc1cc(OC(F)(F)F)ccc1Nc1nc(Nc2cc(OC)ncc2C)ncc1C(F)(F)F` [Compound I-407, N-(2-((2-((2-methoxy-5-methylpyridin-4-yl)amino)-5-(trifluoromethyl)pyrimidin-4-yl)amino)-5-(trifluoromethoxy)phenyl)acrylamide], the EC50 was under 100 nM in experiment [1] and 101 to 500 nM in experiment [2].
On the same counts, the results for `C=CC(=O)Nc1cc(C)ccc1Nc1nc(Nc2cc(OC)ncc2C(F)F)ncc1C(F)(F)F` [Compound I-431, N-(2-((2-((5-(difluoromethyl)-2-methoxypyridin-4-yl)amino)-5-(trifluoromethyl)pyrimidin-4-yl)amino)-5-methylphenyl)acrylamide] are 101 to 500 nM and 101 to 500 nM.
The like results for `C=CC(=O)Nc1cc(C)ccc1Nc1nc(Nc2cc(OCCOC)ncc2C)ncc1C(F)(F)F` [Compound I-359, N-(2-((2-((2-(2-methoxyethoxy)-5-methylpyridin-4-yl)amino)-5-(trifluoromethyl)pyrimidin-4-yl)amino)-5-methylphenyl)acrylamide] were, in that order, 101 to 500 nM and 101 to 500 nM.
The like results for `C=CC(=O)Nc1cc(C)ccc1Nc1nc(Nc2cc(P(C)(C)=O)ncc2C)ncc1C(F)(F)F` [Compound I-343, N-(2-((2-((2-(dimethylphosphoryl)-5-methylpyridin-4-yl)amino)-5-(trifluoromethyl)pyrimidin-4-yl)amino)-5-methylphenyl)acrylamide] were, in that order, 101 to 500 nM and 101 to 500 nM.
With `C=CC(=O)Nc1cc(CN2CCN(S(C)(=O)=O)CC2)ccc1Nc1nc(Nc2nc(OC)ncc2C)ncc1C(F)(F)F` [Compound I-383, N-(2-((2-((2-methoxy-5-methylpyrimidin-4-yl)amino)-5-(trifluoromethyl)pyrimidin-4-yl)amino)-5-((4-(methylsulfonyl)piperazin-1-yl)methyl)phenyl)acrylamide], the EC50 is under 100 nM in experiment [1] and over 1000 nM in experiment [2].
